Source: patent publication US6211212A, “Pyrrolidine and thiazole derivatives with metallo-beta-lactamase inhibitory properties” (SmithKline Beecham p.l.c., priority 1997, dated 2001)

Molecular target: B.fragilis CfiA metallo-β-lactamase (Bacteroides fragilis, UniProt P25910)
Assay: I50 screen (nitrocefin reporter substrate)
Type: biochemical
Details: 25 μM PIPES pH 7, 37° C., nitrocefin 91 μM, 5 minute preincubation, Zn2+ 100 μM
Description: The inhibitory activity of the compounds of the invention was measured in 25 μM PIPES pH 7 buffer at 10 concentrations (1000, 333, 111, 37, 12.3, 4.1, 1.4, 0.46, 0.15 and 0.05 μM) at 37° C. using nitrocefin (91 μM final concentration) as the reporter substrate. The assays were performed with a 5 minute preincubation of enzyme and inhibitor and were conducted in the presence of added zinc sulphate (Zn^2+ 100 μM, final concentration). The methodology is described in detail in the following references: Payne et al (1991), J. Antimicrob. Chemother., 28:255; Payne et al (1994), Antimicrob. Agents and Chemother., 38:767.

B.fragilis CfiA metallo-β-lactamase, sequence (P25910 19-249): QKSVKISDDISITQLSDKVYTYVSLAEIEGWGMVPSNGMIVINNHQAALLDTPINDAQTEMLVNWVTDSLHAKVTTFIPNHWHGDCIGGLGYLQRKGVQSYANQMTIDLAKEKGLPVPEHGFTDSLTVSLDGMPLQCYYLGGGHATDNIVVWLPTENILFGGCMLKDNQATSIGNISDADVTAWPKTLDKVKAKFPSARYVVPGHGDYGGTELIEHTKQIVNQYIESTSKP

IC50: < 1000 nM
Structure (SMILES): O=C(N[C@@H](C(=O)O)c1ccccc1)[C@H]1CCCC[C@H]1S (mixture of isomers) [Example E3, N-[2-(R,S)-Mercapto-1-(R,S)-cyclohexancarbonyl]-D-phenylglycine]
